# Square brackets hold non-standard residues; d marks the D form. Peptide text beside a SMILES is read from it. pS = N[C@@H](COP(=O)(O)O)C(=O)O
# Key:
# [1] = tested on: Human corneal epithelial cells; assay: Calcium Green-2 calcium signaling in human corneal epithelial cells; format: cell-based
# Description: Calcium Signaling. Human corneal epithelial cells were treated with Hst1 or Hst5, stained with Calcium Green-2, and relative fluorescence intensity was monitored at 1, 2 and 4 hours. […] This normalization of cellular calcium levels seen after toxicity from benzalkonium chloride treatment is analogous to toxic effects seen in chronic pain and other conditions. As such, histatin peptides may of use in the amelioration of chronic pain.
# TMEM97 [2] = target: T1, TMEM97 (Homo sapiens, UniProt Q5BJF2); assay: ELISA on plates coated with TMEM97; format: binding
# Description: A co-immunoprecipitation (co-IP) assay was performed to determine if the interaction between Hst1 and TMEM97 was reproducible at the cellular level. […] These bands may represent monomeric and dimeric versions of Hst1 and are similar to what has been seen with western blot analyses of Hst1 containing samples. […] Enzyme-linked immunosorbent assay (ELISA) were also conducted to detect bound Hst1 on plates coated with TMEM97.
# Target sequence in this assay (Q5BJF2 whole entry, species assumed): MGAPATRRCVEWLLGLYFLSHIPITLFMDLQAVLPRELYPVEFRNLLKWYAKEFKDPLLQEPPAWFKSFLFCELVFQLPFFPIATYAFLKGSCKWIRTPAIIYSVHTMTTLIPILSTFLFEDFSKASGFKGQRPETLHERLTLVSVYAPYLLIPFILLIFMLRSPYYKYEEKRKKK
# TMEM97 (144-176) = target: T2, TMEM97 (144-176) (Homo sapiens, UniProt Q5BJF2); assay: Isothermal titration calorimetry, C-terminal of TMEM97; format: binding; settings: ITC; the C-terminal of TMEM97
# T2 construct: made in house; host or cells: chemical solid-phase synthesis (Fmoc, Wang resin)
# T2 sequence (Q5BJF2 144-176 limits assumed): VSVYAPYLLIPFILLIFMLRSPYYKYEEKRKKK
# Description: Isothermal Titration Calorimetry (ITC). The three synthesized peptides, TMEM97 (108-176), TMEM97 (108-143) and TMEM97 (144-176) were prepared in ITC buffer (10 mM Tris, pH 7.4, 150 mM NaCl, 0.05% polysorbate 20) at 40 μM concentration and placed in the sample cell. All ITC experiments were performed while stirring at 395 rpm, in ITC buffer at 25° C. using a VP-ITC titration microcalorimeter from MicroCal™, LLC (Northampton, Mass.). The microsyringe was loaded with a Histatin 1 solution (500 μM in ITC buffer). All titrations were conducted using an initial injection of 2.5 μL followed by 35 identical injections of 5 μL with a duration of 16 seconds (per injection) and a spacing of 210 seconds between injections. The buffer control titration (Histatin 1 into buffer) signals were subtracted from the experimental data. The collected data were evaluated using NITPIC (NIH), SEDPHAT (NIH), and GUSSI (NIH).
# To determine more precisely which segment of TMEM97 is necessary for binding of Hst1, multiple synthetic fragments of TMEM97 were generated (Table 6) and binding to Hst1 was tested using SPR. […] Smaller fragments of the C-terminal of TMEM97 were then constructed to represent the (predicted) luminal (108-143) and cytoplasmic (144-176) exposed segments of the C-terminus of TMEM97 based on modeling experiments previously described. […] SPR results for Hst1 were confirmed using ITC as an orthogonal analytical method.
# TMEM97 [3] = target: T1, TMEM97; assay: Co-immunoprecipitation / western blot in HCE cells; format: binding; design: endogenous in cells; host or cells: HCE cells; settings: 20 μM Hst1 for 6 hours, IP TMEM97 antibody
# Description: Immunoprecipitation/Western Blot Analysis. The day before, HCE cells were plated at the concentration of 5×10^6 cells/well in a 100 mm dish and were treated with 20 μM of Hst1 for 6 hours. Cells were harvested with lysis buffer (1% NP40, 137 mM sodium chloride, 20 mM Tris [pH 8.0], and 10% glycerol) and the lysates were incubated with 5 μL of a validated rabbit polyclonal anti-TMEM97 antibody (Novus Bio.; Littleton, Colo.) overnight at 4° C. The lysates were incubated with 30 μL of a suspension of protein A/G (Santa Cruz Biotechnology; Dallas, Tex.) for 2 hours at 4° C. with gentle shaking. After centrifugation for 5 minutes, pellets were washed three times and resuspended in 50 μL of 2×NUPAGE® LDS sample buffer (Invitrogen; Carlsbad, Calif.) and boiled for 10 minutes.
# For detecting Hst1 bound to TMEM97 protein, the lysates were subjected to electrophoresis on 12% NUPAGE® Bis-Tris gels (Invitrogen; Carlsbad, Calif.), followed by transfer to nitrocellulose membranes (Amersham Protran, GE Healthcare; Pittsburgh, Pa.). Membranes were then blocked with Tris-buffered saline containing 3% nonfat dry milk for 1 hour and incubated with rabbit primary antibody against Hst1 (Mybiosource; San Diego, Calif.) (1:1000) overnight at 4° C. […]
# Target sequence in this assay (Q5BJF2 whole entry): as the sequence (Q5BJF2 whole entry, species assumed) above
smiles,measurement,setting,value
CC(C)C[C@H](NC(=O)[C@H](Cc1ccc(O)cc1)NC(=O)[C@H](CC(N)=O)NC(=O)[C@H](CO)NC(=O)CNC(=O)[C@H](Cc1ccc(O)cc1)NC(=O)[C@H](CC(=O)O)NC(=O)CNC(=O)[C@H](Cc1ccc(O)cc1)NC(=O)[C@H](Cc1ccccc1)NC(=O)[C@@H]1CCCN1C(=O)[C@H](Cc1ccccc1)NC(=O)[C@H](CCC(=O)O)NC(=O)[C@H](CCCNC(=N)N)NC(=O)[C@H](Cc1c[nH]cn1)NC(=O)[C@H](CO)NC(=O)[C@H](Cc1c[nH]cn1)NC(=O)[C@H](Cc1c[nH]cn1)NC(=O)[C@H](CCCCN)NC(=O)[C@H](CCC(=O)O)NC(=O)[C@H](Cc1c[nH]cn1)NC(=O)[C@H](Cc1ccccc1)NC(=O)[C@H](CCCCN)NC(=O)[C@H](CCCNC(=N)N)NC(=O)[C@H](CCCNC(=N)N)NC(=O)[C@H](Cc1ccc(O)cc1)NC(=O)CNC(=O)[C@H](Cc1c[nH]cn1)NC(=O)[C@H](Cc1c[nH]cn1)NC(=O)[C@H](CCCNC(=N)N)NC(=O)[C@H](CCCCN)NC(=O)[C@H](CCC(=O)O)NC(=O)[C@H](Cc1c[nH]cn1)NC(=O)[C@H](COP(=O)(O)O)NC(=O)[C@@H](N)CC(=O)O)C(=O)N[C@@H](Cc1ccc(O)cc1)C(=O)N[C@@H](CC(=O)O)C(=O)N[C@@H](CC(N)=O)C(=O)O [Hst1] (H-D[pS]HEKRHHGYRRKFHEKHHSHREFPFYGDYGSNYLYDN-OH; N-terminus and C-terminus assumed),calcium signaling (relative fluorescence intensity),"[1]; 1, 2 and 4 hours",increases calcium signaling
same,elevated calcium levels after benzalkonium chloride,[1]; cells treated with 0.001% BAK,reduced elevated calcium levels
same,binding to TMEM97 in ELISA,TMEM97 [2],confirmed binding
same,effect of DTG on Hst1 binding in ELISA,"TMEM97 [2]; addition of 1,3-Di-o-tolylguanidine (DTG)",did not alter
same,Kd,TMEM97 (144-176),460 ± 120 nM
same,ΔH,TMEM97 (144-176),-790 ± 28 kcal/mol
same,ΔS,TMEM97 (144-176),−2.28(±0.37)×10^3 cal/mol K
same,co-precipitation with TMEM97,TMEM97 [3],co-precipitated with TMEM97

# Source: patent publication US20230190870A1, “Method for Treating Lysosomal Storage Diseases with Histatin Peptides” (THE BOARD OF TRUSTEES OF THE UNIVERSITY OF ILLINOIS, priority 2020, published 2023)
